This assay concerns human neutrophils. In words: Human neutrophil degranulation assay (LTB4-induced, myeloperoxidase release). Type of assay: cell-based. The following applies: Table 1, LTB4 (5×10^-8 M). As to the method: Neutrophils were purified from venous blood of normal human donors using standard techniques of dextran sedimentation, centrifugation on Ficoll-paque® (Pharmacia) or Histopaque® sterile solution (Sigma) and hypotonic lysis of erythrocytes (Boyum, A., Isolation of Leukocytes From Human Blood: Further Observations. Scand. J. Lab. Clin. Invest., 21 (Suppl. 97): 31, 1968). The purity of isolated neutrophils was >95%.
Neutrophil degranulation was determined by measuring the release of myeloperoxidase activity into the incubation medium. Neutrophils (3×10^6) in 1 ml HBSS solution were preincubated with cytochalasin B (5 μg) at 37° C. for 5 minutes, followed by preincubation with test compounds for 7 minutes. Neutrophils were then incubated for 2 to 20 minutes with either LTB4 (5×10^-8 M) or the chemotactic peptide f-met-leu-phe (5×10^-6 M) to induce degranulation. Following incubation, samples were centrifuged and myeloperoxidase was extracted from the cell pellets by sonication in phosphate buffer containing 0.4% Triton X-100. Triton X-100 was also added to the supernatants to a concentration of 0.4%. The supernatants and the pellet - extracts were then assayed spectrophotometrically for myeloperoxidase activity by determining the rate of decomposition of H2 O2 with o-dianisidine as hydrogen donor as described by Renlund, et al. (Renlund, D. G., MacFarlane, J. L., Christensen, R. D., Lynch, R. E., and Rothstein, G., A Quantitative And Sensitive Method For Measurement Of Myeloperoxidase, Clinical Research 28:75A, 1980). Myeloperoxidase activity released into the supernatant was expressed as the percent of the average total activity (pellet plus supernatant).

As for `CCCc1c(OCCCOc2ccc(C(C)=O)c(OC)c2CCC)ccc2c1OC(C(=O)O)CC2` (stereo not shown) [Example 1, 7-[3-(4-acetyl-3-methoxy-2-propylphenoxy)propoxy]-3,4-dihydro-8-propyl-2H-1-benzopyran-2-carboxylic acid], the IC50 (as a rule, the concentration at which inhibition is half-maximal) came to 1500 nM.

Values taken from US4889871A, “Alkoxy-substituted dihydrobenzopyran-2-carboxylate derivatives” (G. D. Searle & Co., priority 1988, dated 1989).
